Like-named read-outs stand apart in the source and are kept apart here.
Columns and labels:
HIPT1 [1] = target: T1, HIPT1 (Humulus lupulus, UniProt E5RP65, INS53SN/R152W); format: biochemical; parameters: were designed to amplify the open reading frame (ORF) of the prenlyltransferase gene; N-terminal 6xHis and TEV site from the pFastBacHT C vector (own knowledge of the vector); made in house; host or cells: Spodoptera frugiperda (Sf9) insect cells, baculovirus (Bac-to-Bac); microsomal preparation, not purified; details: mean ± SD (n = 3), read-out: Km Substrate
T1 sequence (E5RP65 other isoform, or with tags, fused parts or gaps INS53SN/R152W): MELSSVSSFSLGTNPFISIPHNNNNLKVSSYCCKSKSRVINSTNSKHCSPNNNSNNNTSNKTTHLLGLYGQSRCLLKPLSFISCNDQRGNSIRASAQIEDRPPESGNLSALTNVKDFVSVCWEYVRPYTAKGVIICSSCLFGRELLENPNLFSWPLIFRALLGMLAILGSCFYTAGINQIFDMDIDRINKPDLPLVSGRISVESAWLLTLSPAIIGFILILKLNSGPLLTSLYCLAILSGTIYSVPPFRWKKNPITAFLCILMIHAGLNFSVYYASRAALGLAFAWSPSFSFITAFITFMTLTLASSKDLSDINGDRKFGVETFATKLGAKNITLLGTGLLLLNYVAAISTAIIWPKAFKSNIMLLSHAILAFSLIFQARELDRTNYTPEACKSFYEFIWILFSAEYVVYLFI
Protocol: (§1) HIPT1 enzyme was assayed with phlorisobutyryphenone (PIBP), phlorisovalerophenone (PIVP) and chalconaringenin. Microsomal preparations from Example 2 were used in a 100 μl enzyme assay containing 100 mM Tris-HCl pH 7.0, 10 mM MgCl2, 0.5 mM aromatic substrate (PIBP, PIVP or chalconaringenin), 0.5 mM dimethylallyldiphosphate (DMAPP) and 20 μl of microsomes from insect cells expressing recombinant HIPT1. The assays were incubated at 30° C. for 120 min, the reactions stopped by addition of 5 μl 6N HCl, the reaction products extracted with 200 μl ethyl acetate and dried. The dried products were resuspended in 100 μl of methanol and analyzed by reversed-phase HPLC (solvent A: 0.1% TFA in water, solvent B: acetonitrile; 0-10 min, 40% B to 50% B; 10-20 min, 50% B to 100% B; flow rate 1 ml/min).

HIPT1 [2] = target: T1, HIPT1; test: HIPT1 enzyme assay with aromatic substrate and DMAPP, products analysed by HPLC and LC-MS; format: biochemical; parameters: were designed to amplify the open reading frame (ORF) of the prenlyltransferase gene; N-terminal 6xHis and TEV site from the pFastBacHT C vector (own knowledge of the vector); made in house; host or cells: Spodoptera frugiperda (Sf9) insect cells, baculovirus (Bac-to-Bac); microsomal preparation, not purified; details: 0.5 mM aromatic substrate, 0.5 mM DMAPP, 30° C., 120 min, pH 7.0
Protocol: as §1
Abbreviations: PIBP is phlorisobutyrophenone, PIVP is phlorisovalerophenone, DMAPP is dimethylallyl diphosphate.

HIPT1 [3] = target: T1, HIPT1; test: Substrate specificity of HIPT1 prenyltransferase activity (14C-DMAPP, radioHPLC); format: biochemical; parameters: were designed to amplify the open reading frame (ORF) of the prenlyltransferase gene; N-terminal 6xHis and TEV site from the pFastBacHT C vector (own knowledge of the vector); made in house; host or cells: Spodoptera frugiperda (Sf9) insect cells, baculovirus (Bac-to-Bac); microsomal preparation, not purified; details: aromatic acceptor substrates
Protocol: Referring to FIG. 9A, prenyltransferase activity of HIPT1 on various substrates was measured using ^14C-DMAPP and thirteen aromatic acceptor substrates. Prenylated products were detected and quantified using radioHPLC. Error bars are SD (n=3). Referring to FIG. 9B, prenyltransferase activity of HIPT1 was measured with different prenyl diphosphate donors and the three major aromatic acceptor substrates, PIBP, PIVP and chalconaringenin. Prenylated products were quantified using HPLC with UV detection. Abbreviations: PIBP, phlorisobutyrophenone, PIVP, phlorisovalerophenone; DMAPP, dimethylallyl diphosphate; IPP, isopentenyl diphosphate; GPP, geranyl diphosphate; GGPP, geranylgeranyl diphosphate. Error bars are SD (n=3).

HIPT1 [4] = target: T1, HIPT1; details: presence of EDTA

SMILES	Km (HIPT1 [1]; acceptor substrate) [µM]	Prenylation by HIPT1 (product formed) (HIPT1 [2])	Acceptance as substrate of HIPT1 (HIPT1 [3])	other results
CC(C)CC(=O)c1c(O)cc(O)cc1O [PIVP, phlorisovalerophenone]	4.95 ± 0.25	forming prenyl PIVP		
O=C(/C=C/c1ccc(O)cc1)c1ccc(O)cc1O [isoliquiritigenin]			can accept	
CC(C)=CCc1c(O)cc(O)c(C(=O)C(C)C)c1O [prenyl-PIBP]			does prenylate prenyl-PIBP to form diprenyl-PIBP	
Cc1cc(O)cc(O)c1 [orcinol]			can accept	
CC(C)=CCOP(=O)(O)OP(=O)(O)O [DMAPP, dimethylallyldiphosphate]				Km (HIPT1 [1]; prenyl donor, determined with PIVP as acceptor substrate): 16.8 ± 2.35 µM
O=C(/C=C/c1ccc(O)cc1)c1c(O)cc(O)cc1O [Chalconaringenin, chalconaringenin]	196 ± 24.8	forming desmethylxanthohumol		
O=C(O)CN(CCN(CC(=O)O)CC(=O)O)CC(=O)O [EDTA]				Effect on prenyltransferase activity of HIPT1 (HIPT1 [4]): completely inhibited
CC(C)C(=O)c1c(O)cc(O)cc1O [PIBP, phlorisobutyryphenone]	10.2 ± 0.55	forming prenyl PIBP		
Oc1ccc(C=Cc2cc(O)cc(O)c2)cc1 [resveratrol]			can accept	

Reference: patent publication US8618355B2, “Aromatic prenyltransferase from hop” (priority 2008, dated 2013)
